The text below walks through data of patent publication US10980805B2, “Aza-pyridone compounds and uses thereof” (Janssen BioPharma, Inc., priority 2013, dated 2021).

Some results are limits rather than exact numbers.

The target in test [1] is Full length EN PA (influenza PA endonuclease) (Influenza A virus, UniProt P15659). The test is described as follows: EN PA FRET inhibition assay. Format: biochemical. As to conditions: FRET probe, mean of a minimum of two independent experiments, read-out: Potency (IC50 class, Table 3).
The test system of test [2] is influenza strains B/Malaysia/2506/2004 or B/Victoria/504/2000. Briefly: Influenza B assay (fluorescence-based influenza neuraminidase assay). The test is classed as cell-based. The following applies: Influenza B virus, A549, 20 h; read-out: Potency (EC50).
Test [3] relates to Influenza strain A549_A/WSN/33 (H1N1). The test is described as follows: Influenza antiviral assay (neuraminidase fluorescence readout). The test is classed as cell-based, Influenza virus. The following applies: Influenza A virus, read-out: % Inhibition (EC50 class, Table 2).
In test [4] the test system is Influenza strain A/Port Chalmers/1/73 (H3N2). Briefly: Combination studies (checker-board, MacSynergy II). Format: cell-based, Influenza virus. The following applies: MDCK cells, three days.
The mark [5] stands for this setting: Compound 2 = 21-A (PA Inhibitor).
Where [6] appears, read: Compound 2 = Amantadine (M2 Channel-Inhibitor).
Setting [7] is: Compound 2 = Rimantadine (M2 Channel-Inhibitor).
Where [8] appears, read: Compound 2 = drawing 296 (Polymerase Inhibitor).

For orientation: IC50 means the concentration at which inhibition is half-maximal. What is called EC50 is the concentration that produces a half-maximal response. In the case of `CC(C)N1C[C@H](C(c2cccc(F)c2)c2cccc(F)c2)n2ncc(=O)c(O)c2C1=O` [Compound 41-A], in test [1], the IC50 is less than 0.25 µM. In addition, the EC50 in test [2] and in test [3] was less than 20 µM in each case.
As to `CC(C)N1C[C@H](C(c2ccccc2)c2ccccc2)n2ncc(=O)c(O)c2C1=O` [Compound 6-A], the IC50 in test [1] was less than 0.25 µM. Moreover, the “Observed Result” value in test [4] (setting [5]) is given as “additive (volumes in the −25-25 range indicate additive behavior)”; in test [4] (setting [6]), “additive (volumes in the −25-25 range indicate additive behavior)”; in test [4] (setting [7]), “additive (volumes in the −25-25 range indicate additive behavior)”; in test [4] (setting [8]), “strongly synergistic”. The “Synergy Volume” value stood at 4.1 μM^2% in test [4] (setting [5]); 22.5 μM^2% in test [4] (setting [6]); 70 μM^2% in test [4] (Compound 2 = Consensus Interferon alpha (Immuno-modulator)); 185 μM^2% in test [4] (Compound 2 = Favipiravir (T-705) (Polymerase Inhibitor)); 276 μM^2% in test [4] (Compound 2 = Laninamivir (Neuraminidase-Inhibitor)); 233 μM^2% in test [4] (Compound 2 = Oseltamivir (Neuraminidase-Inhibitor)). Besides, the “Synergy Volume” value amounted to 308 μM^2% in test [4] (Compound 2 = Peramivir (Neuraminidase-Inhibitor)); 109 μM^2% in test [4] (Compound 2 = Ribavirin (Polymerase Inhibitor)); 4.6 μM^2% in test [4] (setting [7]); 217 μM^2% in test [4] (Compound 2 = Zanamivir (Neuraminidase-Inhibitor)); 440 μM^2% in test [4] (setting [8]). In addition, the EC50 in test [2] and in test [3] was less than 20 µM throughout.
On to `CC(C)N1C[C@H](C(c2cccc(Cl)c2)c2cccc(Cl)c2)n2ncc(=O)c(O)c2C1=O` [Compound 68-A], for which the IC50 in test [1] was less than 0.25 µM. In addition, the EC50 in test [2] and in test [3] was less than 20 µM each time.
For `CCN1C[C@H](C(c2cccc(F)c2)c2cccc(F)c2)n2ncc(=O)c(O)c2C1=O` [Compound 21-A], the IC50 in test [1] is less than 0.25 µM. For the same molecule, the EC50 in test [2] and in test [3] was less than 20 µM throughout.
